Measured values: patent US20250346573A1, “AZAQUINOLINONE DERIVATIVE, PREPARATION METHOD THEREFOR AND USE THEREOF” (CHENGDU EASTON BIOPHARMACEUTICALS CO., LTD., priority 2022, published 2025)

What was measured:
[1] = tested on: BRCA1-mutated MDA-MB-436 cells; test: Proliferation inhibitory test of BRCA1-mutated MDA-MB-436 cells (CCK-8); assay type: cell-based; conditions: Homo sapiens, 120 h, 5 days, read-out: IC50 (nM), inhibitory activity against BRCA1-mutated MDA-MB-436 cells
Procedure: (§1) CCK-8 was used to measure the content of mitochondrial dehydrogenase in cells at different drug concentrations, and the luminescence intensity was used to reflect the cell activity. The IC50 values of different compounds on BRCA1-mutated MDA-MB-436 cells were calculated using the survival rate, and the proliferation inhibitory effect of the compounds of the present disclosure on BRCA1-mutated MDA-MB-436 cells was studied to evaluate the anti-tumor efficacy of the test compounds at the cellular level.
(§2) On Day −1, the cells were inoculated into the 96-well cell culture plate at a fixed cell density and then placed in the 5% CO2 cell incubator for culture overnight at 37° C.
(§3) On Day 0, the compound to be tested was prepared into a 10 mM stock solution and diluted into 9 concentration points at the concentration of 1,000 nM, 300 nM, 100 nM, 30 nM, 10 nM, 3 nM, 1 nM, 0.3 nM and 0.1 nM in two duplicated wells. A fixed volume of the diluted compound was added to the 96-well cell culture plate and then placed in the 5% CO2 cell incubator for culture at 37° C. for 5 days.
(§4) On Day 5, a fixed volume of CCK-8 was added to the 96-well cell culture plate and incubated in the 5% CO2 cell incubator at 37° C. for 1.5 h, and the plate was read by a chemiluminescence module of the multifunctional microplate reader.
(§5) With the logarithmic value of the concentration as an X axis and the survival percentage as a Y axis, a dose-effect curve was fitted by using a log(inhibitor) vs. response-Variable slop (Four parameters) formula of the analysis software Graphpad Prism 9, thereby obtaining the IC50 value of the anti-proliferation inhibitory activity of each compound against BRCA1-mutated MDA-MB-436 cells.

[2] = tested on: BRCA1-mutated HCC1395 cells; test: Proliferation inhibitory test of BRCA1-mutated HCC1395 cells (CCK-8); assay type: cell-based; conditions: Homo sapiens, 120 h, 5 days, read-out: IC50 (nM), inhibitory activity against BRCA1-mutated HCC1395 cells
Procedure: as §1, with “HCC1395” for “MDA-MB-436”
as §2, §3, §4
as §5, with “HCC1395” for “MDA-MB-436”

[3] = Study on pharmacokinetics of rats (oral gavage, plasma LC-MS/MS); assay type: in vivo; conditions: female SD rats; for AUC(0-t) / Cmax / half-life: rat
Procedure: With SD rats as test animals, the plasma concentration in the plasma of rats at different time points after oral administration of the compounds of the present application was determined by an LC-MS/MS method. Pharmacokinetic parameters of the compounds of the present application in rats were obtained to study pharmacokinetic characteristics.
SD rats, female, body weight 180-220 g, 3 rats per group. After being purchased, the animals were fed in an animal house for an adaptation period of at least 3 days and then used for testing after passing quarantine.
3.1. Grouping: The SD rats were randomly grouped according to Table 4, which had no statistical difference in the body weight between groups after grouping.
3.2. Vehicle: 10% DMSO and 90% (20% SBE-β-CD in saline).
According to Table 4, each compound was prepared into a clear solution with the vehicle, respectively, and each group was administered by gavage with the corresponding test drug. Before administration, and at 15 min, 30 min, 1 h, 2 h, 4 h, 6 h, 8 h and 24 h after the administration, a fixed volume of blood was collected through sinuses jugularis, placed in an EDTA-K2 anticoagulant tube, and centrifuged at 4,000 rpm for 10 min to separate the plasma in a centrifuge tube. The plasma was frozen in a refrigerator at −80° C.
The plasma stored at −80° C. at each time point was taken out, and a fixed volume of acetonitrile was added thereto. After being vortexed at 1,500 rpm for 2 min, it was centrifuged for 15 min (3,500 r/min). A fixed volume of solution supernatant was taken for LC-MS/MS analysis.
The pharmacokinetic behaviors of the test compounds were fitted with a non-compartmental model, and the main pharmacokinetic parameters were calculated using DAS3.31 software.

Row | IC50 [1] [nM] | IC50 [2] [nM] | SMILES | further results
1 | 4.02 |  | CCc1nc2c(F)cc(CN3CCN(c4ccc(C(=O)NC5COC5)nc4C)CC3)cc2[nH]c1=O [Compound 42, 5-(4-((2-ethyl-8-fluoro-3-oxo-3,4-dihydroquinoxalin-6-yl)methyl)piperazin-1-yl)-6-methyl-N-(oxetan-3-yl)picolinamide] | 
2 | 4.88 | 0.95 | CNC(=O)c1ccc(N2CCN(Cc3cc4[nH]c(=O)c(C)nc4cc3OC)CC2)c(Cl)n1 [Compound 37, 6-chloro-5-(4-((7-methoxy-2-methyl-3-oxo-3,4-dihydroquinoxalin-6-yl)methyl)piperazin-1-yl)-N-methylpicolinamide] | 
3 | 8.77 |  | CCc1nc2c(F)cc(CN3CCN(c4ccc(C(=O)NCCO)nc4C)CC3)cc2[nH]c1=O [Compound 31, 5-(4-((2-ethyl-8-fluoro-3-oxo-3,4-dihydroquinoxalin-6-yl)methyl)piperazin-1-yl)-N-(2-hydroxyethyl)-6-methylpicolinamide] | 
4 | 2.2 | 2.56 | Cc1nc(C(=O)NC2CC2)ccc1N1CCN(Cc2cc(F)c3nc(C)c(=O)[nH]c3c2)CC1 [Compound 55, N-cyclopropyl-5-(4-((8-fluoro-2-methyl-3-oxo-3,4-dihydroquinoxalin-6-yl)methyl)piperazin-1-yl)-6-methylpicolinamide] | Cl_F_obs ([3]; po. 3 mg/kg): 0.14 L/h/kg; AUC(0-t) ([3]; po. 3 mg/kg): 21.3 µg·h/mL; Cmax ([3]; po. 3 mg/kg): 2.21 µg/mL; half-life ([3]; po. 3 mg/kg): 6.26 h
5 | 4.97 |  | Cc1nc(C(=O)NCCF)ccc1N1CCN(Cc2cc3[nH]c(=O)c(C)nc3c(F)c2F)CC1 [Compound 54, 5-(4-((7,8-difluoro-2-methyl-3-oxo-3,4-dihydroquinoxalin-6-yl)methyl)piperazin-1-yl)-N-(2-fluoroethyl)-6-methylpicolinamide] | 
6 | 5.84 | 2.29 | CNC(=O)c1ccc(N2CCN(Cc3cc4[nH]c(=O)c(C)nc4c(F)c3F)CC2)c(C)n1 [Compound 9, 5-(4-((7,8-difluoro-2-methyl-3-oxo-3,4-dihydroquinoxalin-6-yl)methyl)piperazin-1-yl)-N,6-dimethylpicolinamide] | Cl_F_obs ([3]; po. 10 mg/kg): 0.03 L/h/kg; AUC(0-t) ([3]; po. 10 mg/kg): 340 µg·h/mL; Cmax ([3]; po. 10 mg/kg): 31.9 µg/mL; half-life ([3]; po. 10 mg/kg): 7.74 h
7 | 3.63 |  | CNC(=O)c1ccc(N2CCN(Cc3cc(C)c4nc(C)c(=O)[nH]c4c3)CC2)c(C)n1 [Compound 10, 5-(4-((2,8-dimethyl-3-oxo-3,4-dihydroquinoxalin-6-yl)methyl)piperazin-1-yl)-N,6-dimethylpicolinamide] | 
8 | 2.31 |  | CNC(=O)c1ccc(N2CCN(Cc3cc(F)c4nc(C)c(=O)[nH]c4c3)CC2)c(Cl)n1 [Compound 7, 6-chloro-5-(4-((8-fluoro-2-methyl-3-oxo-3,4-dihydroquinoxalin-6-yl)methyl)piperazin-1-yl)-N-methylpicolinamide] | 
9 | 9.83 |  | Cc1nc(C(=O)NCCF)ccc1N1CCN(Cc2cc(F)c3nc(C)c(=O)[nH]c3c2)CC1 [Compound 29, 5-(4-((8-fluoro-2-methyl-3-oxo-3,4-dihydroquinoxalin-6-yl)methyl)piperazin-1-yl)-N-(2-fluoroethyl)-6-methylpicolinamide] | 
10 | 8.38 |  | Cc1nc(C(=O)N[C@@H]2CCOC2)ccc1N1CCN(Cc2cc(F)c3nc(C)c(=O)[nH]c3c2)CC1 [Compound 46, (R)-5-(4-((8-fluoro-2-methyl-3-oxo-3,4-dihydroquinoxalin-6-yl)methyl)piperazin-1-yl)-6-methyl-N-(tetrahydrofuran-3-yl)picolinamide] | 
11 | 1.05 | 1.31 | CNC(=O)c1ccc(N2CCN(Cc3cc(Cl)c4nc(C)c(=O)[nH]c4c3)CC2)c(C)n1 [Compound 51, 5-(4-((8-chloro-2-methyl-3-oxo-3,4-dihydroquinoxalin-6-yl)methyl)piperazin-1-yl)-N,6-dimethylpicolinamide] | 
12 | 0.67 | 1.76 | CCc1cc2ncc(CN3CCN(c4ccc(C(=O)NC)nc4)CC3)cc2[nH]c1=O [AZD5305, reference compound] | 
13 | 6.95 |  | COCCNC(=O)c1ccc(N2CCN(Cc3cc(C)c4nc(C)c(=O)[nH]c4c3)CC2)c(C)n1 [Compound 22, 5-(4-((2,8-dimethyl-3-oxo-3,4-dihydroquinoxalin-6-yl)methyl)piperazin-1-yl)-N-(2-methoxyethyl)-6-methylpicolinamide] | 
14 | 5.24 | 1.82 | CCc1nc2c(F)cc(CN3CCN(c4ccc(C(=O)NC)nc4C)CC3)cc2[nH]c1=O [Compound 32, 5-(4-((2-ethyl-8-fluoro-3-oxo-3,4-dihydroquinoxalin-6-yl)methyl)piperazin-1-yl)-N,6-dimethylpicolinamide] | Cl_F_obs ([3]; po. 3 mg/kg): 0.05 L/h/kg; AUC(0-t) ([3]; po. 3 mg/kg): 50.6 µg·h/mL; Cmax ([3]; po. 3 mg/kg): 7.18 µg/mL; half-life ([3]; po. 3 mg/kg): 7.39 h
15 | 6.49 |  | CNC(=O)c1ccc(N2CCN(Cc3cc4[nH]c(=O)c(C)nc4cc3OC)CC2)c(C)n1 [Compound 41, 5-(4-((7-methoxy-2-methyl-3-oxo-3,4-dihydroquinoxalin-6-yl)methyl)piperazin-1-yl)-N,6-dimethylpicolinamide] | 
16 | 8.31 |  | Cc1nc2c(C)cc(CN3CCN(c4ccc(C#N)c(F)c4)CC3)cc2[nH]c1=O [Compound 19, 4-(4-((2,8-dimethyl-3-oxo-3,4-dihydroquinoxalin-6-yl)methyl)piperazin-1-yl)-2-fluorobenzonitrile] | 
17 | 4.53 | 2.03 | Cc1nc(C(=O)NCC(F)F)ccc1N1CCN(Cc2cc(F)c3nc(C)c(=O)[nH]c3c2)CC1 [Compound 28, N-(2,2-difluoroethyl)-5-(4-((8-fluoro-2-methyl-3-oxo-3,4-dihydroquinoxalin-6-yl)methyl)piperazin-1-yl)-6-methylpicolinamide] | 
18 | 6.91 |  | CCc1nc2c(F)cc(CN3CCN(c4ccc(C(=O)NCC5COC5)nc4C)CC3)cc2[nH]c1=O [Compound 33, 5-(4-((2-ethyl-8-fluoro-3-oxo-3,4-dihydroquinoxalin-6-yl)methyl)piperazin-1-yl)-6-methyl-N-(oxetan-3-ylmethyl)picolinamide] | 
19 | 5.94 |  | CCc1nc2c(F)cc(CN3CCN(c4ccc(C(=O)NCCF)nc4C)CC3)cc2[nH]c1=O [Compound 30, 5-(4-((2-ethyl-8-fluoro-3-oxo-3,4-dihydroquinoxalin-6-yl)methyl)piperazin-1-yl)-N-(2-fluoroethyl)-6-methylpicolinamide] | 
20 | 5.87 |  | CCc1nc2c(F)cc(CN3CCN(c4ccc(C(=O)NCCOC)nc4C)CC3)cc2[nH]c1=O [Compound 34, 5-(4-((2-ethyl-8-fluoro-3-oxo-3,4-dihydroquinoxalin-6-yl)methyl)piperazin-1-yl)-N-(2-methoxyethyl)-6-methylpicolinamide] | Cl_F_obs ([3]; po. 3 mg/kg): 0.18 L/h/kg; AUC(0-t) ([3]; po. 3 mg/kg): 17 µg·h/mL; Cmax ([3]; po. 3 mg/kg): 3.23 µg/mL; half-life ([3]; po. 3 mg/kg): 5.2 h
21 | 11.1 |  | CNC(=O)c1ccc(N2CCN(Cc3cc4[nH]c(=O)c(C)nc4c(F)c3F)CC2)cn1 [Compound 8, 5-(4-((7,8-difluoro-2-methyl-3-oxo-3,4-dihydroquinoxalin-6-yl)methyl)piperazin-1-yl)-N-methylpicolinamide] | 

Row | SMILES | IC50 [1] [nM] | IC50 [2] [nM] | further results
22 | CNC(=O)c1ccc(N2CCN(Cc3ccc4nc(C)c(=O)[nH]c4c3F)CC2)c(F)n1 [AZD9574, reference compound] | 21.8 | 9.93 | Cl_F_obs ([3]; po. 3 mg/kg): 0.37 L/h/kg; AUC(0-t) ([3]; po. 3 mg/kg): 6.46 µg·h/mL; Cmax ([3]; po. 3 mg/kg): 0.702 µg/mL; half-life ([3]; po. 3 mg/kg): 6.06 h
